Source: patent US20100249123A1, “NOVEL BENZAMIDE DERIVATIVES AS MODULATORS OF THE FOLLICLE STIMULATING HORMONE” (ADDEX PHARMA SA, priority 2007, published 2010)

How the values were obtained:
[1] = target: T1, rat follicle stimulating hormone receptor (rFSHR) (Rattus norvegicus, UniProt P20395); assay: Intracellular cAMP measurement (HTRF) assay, antagonism of EC70 of hFSH; assay type: cell-based; details: HEK293 cells expressing rFSHR, 1 ng/ml hFSH (EC70), read-out: Class (IC50 to antagonise an EC70 of FSH receptors agonist such as hFSH)
T1 construct: expressed in transfected cells
T1 sequence (P20395 18-692): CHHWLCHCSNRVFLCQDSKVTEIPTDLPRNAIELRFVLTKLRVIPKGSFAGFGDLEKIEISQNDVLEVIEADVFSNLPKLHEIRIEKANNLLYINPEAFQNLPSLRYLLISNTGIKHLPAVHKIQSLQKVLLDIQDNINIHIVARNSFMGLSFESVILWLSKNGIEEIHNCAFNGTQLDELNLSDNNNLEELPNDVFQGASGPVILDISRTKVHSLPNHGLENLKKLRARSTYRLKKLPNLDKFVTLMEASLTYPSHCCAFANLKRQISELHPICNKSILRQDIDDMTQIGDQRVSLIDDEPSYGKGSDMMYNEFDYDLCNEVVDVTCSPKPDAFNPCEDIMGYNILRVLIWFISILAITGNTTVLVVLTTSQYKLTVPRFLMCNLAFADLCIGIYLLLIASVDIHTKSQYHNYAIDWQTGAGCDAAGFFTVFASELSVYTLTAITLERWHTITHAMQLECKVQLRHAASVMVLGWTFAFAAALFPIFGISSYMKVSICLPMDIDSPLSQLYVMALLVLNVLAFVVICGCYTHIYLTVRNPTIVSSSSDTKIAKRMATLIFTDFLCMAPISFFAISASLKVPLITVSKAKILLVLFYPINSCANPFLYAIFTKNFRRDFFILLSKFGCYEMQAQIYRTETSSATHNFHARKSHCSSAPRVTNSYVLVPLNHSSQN
Source text: Intracellular cAMP Measurement Assay
The Intracellular cAMP measurement assay is a functional cell-based assay used to study GPCR function. This method relies on a Time-Resolved Fluorescence (HTRF) assay to measure the cAMP accumulation upon receptor-mediated Gs protein activation in cells expressing recombinant GPCR or in cells from native tissues. In brief, this method is a competitive immunoassay between native cAMP produced by cells and the cAMP labeled with a fluorescent tag. The endogenously produced cAMP competes with exogenous added d2-labelled cAMP for the cAMP binding site on a Eu3+ cryptate labelled anti-cAMP antibody. The d2-labelled cAMP and the Eu^3+ labelled antibody produces a basal fluroresence via HTRF and therefore an intracellular increase in unlabelled cAMP is detected as decrease in this signal. cAMP is one of the most important intracellular mediators. Its concentration in cells can be increased upon binding of many hormones to their receptors. The most studied pathway consists in the release of α-subunit GTP-binding proteins following ligand-receptor interaction, which in turn activates or inhibits the ATP/cAMP conversion function of adenylate cyclase enzyme. cAMP is then involved in many complex regulatory processes such as protein kinase activation or ion channel gating. This method is widely used to study receptor activation of G protein in cells over-expressing GPCRs or in native cells, including FSH receptors expressing cells (Gabriel et al., Assay Drug Dev. Technol., 1, 291-303, 2003).
Transfection and cell culture: The cDNA encoding the rat follicle stimulating hormone receptor (rFSHR), (accession number NM_199237, NCBI Nucleotide database browser) was subcloned into an expression vector containing also the hygromycin resistance gene. Transfection of this vector into HEK293 cells with PolyFect reagent (Qiagen) according to supplier's protocol, and hygromycin treatment allowed selection of antibiotic resistant cells which had integrated stably one or more copies of the plasmid. Positive cellular clones expressing rFSHR were identified in a functional assay measuring cAMP production in cells following stimulation by addition of purified human follicle stimulating hormone (hFSH).
HTRF cAMP assay: On the day of the experiment, cells were detached from the Petri dish and distributed in a low volume, black-walled 384-well plate at a density of 5,000 cells/well in an assay buffer containing 1 mM IBMX to prevent cAMP degradation by cytoplasmic phosphodiesterases. The determination of the cAMP accumulation was performed using an HTRF assay (Trinquet et al., Anal. Biochem., 358, 126-135, 2006). Briefly, cells were incubated for 3 min in the presence of increasing concentrations of negative allosteric modulators (from 1 nM to 60 μM) and then 30 min in the presence of 1 ng/ml of hFSH, an agonist of rat FSH receptor, that has been determined in previous experiments to correspond to the EC70, a concentration that gives 70% of the maximal response of the agonist, and is in accordance with published data (Fox et al., Mol. Endocrin., 15, 378-389, 2001). […] Cells were then lysed by adding the HTRF assay components, the europium cryptate-labeled anti-cAMP antibody, and the XL665-labeled cAMP analog, previously diluted in a HEPES buffer (50 mM, pH 7.0) containing 0.8 M potassium fluoride, 0.2% (w/v) BSA, and 1% (v/v) Triton X-100, a percentage of detergent that ensure complete cell lysis. Assay was then incubated for 1 hr at room temperature, and HTRF signal was measured after excitation at 337 nm, and dual emission at 620 and 665 nm, using a RubyStar fluorimeter (BMG Labtechnologies). Moreover, the fluorescence ratio of an appropriate range of known concentrations of cAMP standards was also included on each assay plate to produce a standard cAMP curve. […]

| Structure (SMILES) | IC50 [1] | melting point |
| --- | --- | --- |
| COc1ccc(C(=O)Nc2ccc(C(C)(C)CNC(C)=O)c(F)c2)cc1OC [Example 151, N-[4-(2-Acetylamino-1,1-dimethyl-ethyl)-3-fluoro-phenyl]-3,4-dimethoxy-benzamide] |  | 186 to 188 °C |
| COc1ccc(C(=O)Nc2ccc(C(C)(C)C#N)cc2)c(Cl)c1OC [Example 153, 2-Chloro-N-[4-(cyano-dimethyl-methyl)-phenyl]-3,4-dimethoxy-benzamide] |  | 195 to 198 °C |
| COc1cc(Cl)c(C(=O)Nc2ccc(C(C)(C)C#N)cc2)cc1OC [Example 155, 2-Chloro-N-[4-(cyano-dimethyl-methyl)-phenyl]-4,5-dimethoxy-benzamide] |  | 142 to 144 °C |
| COc1ccc(C(=O)Nc2ccc(C(C)(C)C#N)c(-c3cccc(Cl)c3)c2)cc1OC [Example 157, N-[3′-Chloro-6-(cyano-dimethyl-methyl)-biphenyl-3-yl]-3,4-dimethoxy-benzamide] |  | 144 to 146 °C |
| COc1ccc(C(=O)Nc2ccc(C(C)(C)C#N)c(-c3ccncc3)c2)cc1OC [Example 158, N-[4-(Cyano-dimethyl-methyl)-3-pyridin-4-yl-phenyl]-3,4-dimethoxy-benzamide] |  | 196 to 199 °C |
| CCOc1ccc(C(=O)Nc2ccc(C(C)(C)C#N)cc2)cc1OCC [Example 160, N-[4-(Cyano-dimethyl-methyl)-phenyl]-3,4-diethoxy-benzamide] |  | 138 to 140 °C |
| COc1ccc(C(=O)Nc2ccc(C(C)(C)C#N)c(-c3cncnc3)c2)cc1OC [Example 184, N-[4-(Cyano-dimethyl-methyl)-3-pyrimidin-5-yl-phenyl]-3,4-dimethoxy-benzamide] | ≥ 1000 nM | 198 to 200 °C |
| COc1ccc(C(=O)Nc2ccc(C(C)(C)CNC(C)=O)c(-c3cccnc3)c2)cc1OC [Example 195, N-[4-(2-Acetylamino-1,1-dimethyl-ethyl)-3-pyridin-3-yl-phenyl]-3,4-dimethoxy-benzamide] | ≥ 1000 nM | 234 to 237 °C |
| CCc1cc(NC(=O)c2ccc(OC)c(OC)c2)ccc1C(C)(C)CNC(C)=O [Example 200, N-[4-(2-Acetylamino-1,1-dimethyl-ethyl)-3-ethyl-phenyl]-3,4-dimethoxy-benzamide] | < 150 nM | 203 to 206 °C |

Now from value to compound:

| IC50 [1] | melting point | Structure (SMILES) |
| --- | --- | --- |
| 150 to 400 nM | 149 to 151 °C | COc1ccc(C(=O)Nc2ccc(C(C)(C)CNC(=O)CCc3ccccc3)cc2)cc1OC [Example 34] |
| 150 to 400 nM | 189 to 190 °C | COc1ccc(C(=O)Nc2ccc(C(C)(C)CNC(=O)c3ccsc3)cc2)cc1OC [Example 72] |
| 150 to 400 nM | 214 to 216 °C | COc1ccc(C(=O)Nc2ccc(C(C)(C)CNC(=O)c3n[nH]c4ccccc34)cc2)cc1OC [Example 87] |
| 400 to 1000 nM | 176 to 178 °C | COc1ccc(C(=O)Nc2ccc(C(C)(C)CNC(=O)c3cc4ccccc4n3C)cc2)cc1OC [Example 108] |
| < 150 nM | 145 to 147 °C | COc1ccc(C(=O)Nc2ccc(C(C)(C)CNC(=O)c3csc4ccccc34)cc2)cc1OC [Example 116] |
| 150 to 400 nM | 94 to 96 °C | COc1ccc(C(=O)Nc2ccc(C(C)(C)CNC(=O)Cc3c[nH]c4ccccc34)cc2)cc1OC [Example 126] |
|  | 181 to 183 °C | COc1ccc(C(=O)Nc2ccc(C(C)(C)CNC(=O)c3cnc4ccccn34)cc2)cc1OC [Example 161, Imidazo[1,2-a]pyridine-3-carboxylic acid {2-[4-(3,4-dimethoxy-benzoylamino)-phenyl]-2-methyl-propyl}-amide] |
|  | 223 to 226 °C | COc1ccc(C(=O)Nc2ccc(C(C)(C)CNC(=O)c3nc4ccccc4[nH]3)cc2)cc1OC [Example 162, 1H-Benzoimidazole-2-carboxylic acid {2-[4-(3,4-dimethoxy-benzoylamino)-phenyl]-2-methyl-propyl}-amide] |
| ≥ 1000 nM | 194 to 196 °C | COc1ccc(C(=O)Nc2ccc(C(C)(C)CNC(=O)c3ccc4nccn4c3)cc2)cc1OC [Example 190] |
| < 150 nM | 222 to 224 °C | COc1ccc(C(=O)Nc2ccc(C(C)(C)CNC(=O)c3nc4ccc(F)cc4[nH]3)cc2)cc1OC [Example 193, 6-Fluoro-1H-benzoimidazole-2-carboxylic acid {2-[4-(3,4-dimethoxy-benzoylamino)-phenyl]-2-methyl-propyl}-amide] |
